Reference: publication PMC7680447 (Glycoconjugate journal, 2020)
Where “and” joins values, the source holds several entries; their conditions need not be identical. Equal entries are not always repeated. Entries after “also recorded” stand apart in the source; their conditions may differ. Where two headings read alike, the source gives them in different places. Values belong to the molecule of their own block, whether it stands above or below them.

How the values were obtained:
Gal-1 (Galectin-1) [1] = target: T1, Gal-1 (Galectin-1) (Homo sapiens, UniProt P09382); experiment: Isothermal titration calorimetry, binding to Gal-1; settings: for −TΔS / −ΔH / −ΔG / Gal-1 binding affinity in words: phosphate buffer pH 7.2; for n-value: rounded/summary values in text, Gal-1 treated as a dimer for concentration input; for Kd in HEPES buffer (values not given): HEPES buffer containing 0.05% Tween-20, control titrations; for Gal-1 binding affinity in words: ITC in solution
his-tagged Gal-1 = his-tagged Gal-1 (Homo sapiens, UniProt P09382); experiment: Isothermal titration calorimetry, binding to his-tagged Gal-1; settings: for n (binding stoichiometry): lectin treated as a dimer; for agreement of titrations: his-tagged Gal-1 vs Gal-1 and previously reported value, ref [40]
Gal-3 (Galectin-3) [2] = target: T2, Gal-3 (Galectin-3) (Homo sapiens, UniProt P17931); experiment: Binding to Gal-3; settings: Gal-3 affinity greater than Gal-1 (Table 1 and Fig. S15)
Gal-1 (Galectin-1) [3] = target: T1, Gal-1 (Galectin-1); settings: in solution, isothermal titration calorimetry, ref [16]; cited from earlier work
Gal-1 = settings: glycan microarray format, ref [29]; cited from earlier work
Gal-3 (Galectin-3) [4] = target: T2, Gal-3 (Galectin-3); settings: ref [34]; cited from earlier work
Gal-1, His52 mutant = settings: mutagenesis of His52 enabled binding of TF; ref [16]; cited from earlier work
[5] = tested on: Gal-1 CRD in Gal-1/Gal-3 heterodimers; settings: sequential model, at full loading, ref [48]; cited from earlier work
Galectin-1 = Galectin-1 (human, UniProt P09382 1-135); experiment: ITC
[6] = target: histidine-tagged Galectin-1 (human, UniProt P09382 1-135); experiment: ITC
Galectin-3 = Galectin-3 (UniProt P17931 1-250); experiment: ITC
[7] = ITC, 25 °C, one-set-of-sites model
[8] = ITC, 25 °C, pH 7.2, ASF at 0.525 mM
[9] = ITC, PEAQ-ITC, 25 °C, 20 mM phosphate, 10 mM NaCl, 10 mM β-mercaptoethanol, pH 7.2, one-set-of-sites model, [ligand] mM/[cell] μM: LacNAc 6.0/140, lactose 8.0/80, ASF 218/61 (so in the source), TF and Thr-TF 6.0/50
[10] = second ASF titration: 0.700 mM ASF, 200 μM His-tag-Gal-1, ITC, 25 °C, pH 7.2

Chain of his-tagged Gal-1 (P09382 whole entry): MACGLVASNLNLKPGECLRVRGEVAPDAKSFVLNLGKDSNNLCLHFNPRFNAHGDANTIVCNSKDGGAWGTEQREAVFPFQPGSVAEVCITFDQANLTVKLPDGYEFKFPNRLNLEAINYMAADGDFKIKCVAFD
T1 sequence (P09382 whole entry): as above
Chain of histidine-tagged Galectin-1 (P09382 whole entry): as above
Chain of Galectin-1 (P09382 whole entry): as above
T2 sequence (P17931 whole entry): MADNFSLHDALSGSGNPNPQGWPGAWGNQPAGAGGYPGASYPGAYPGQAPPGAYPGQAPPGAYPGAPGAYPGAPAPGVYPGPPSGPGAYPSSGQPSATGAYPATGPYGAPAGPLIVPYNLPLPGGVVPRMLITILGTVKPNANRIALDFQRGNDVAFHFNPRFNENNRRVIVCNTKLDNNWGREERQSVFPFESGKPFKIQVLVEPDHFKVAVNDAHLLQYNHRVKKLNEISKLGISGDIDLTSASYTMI
Chain of Galectin-3 (P17931 whole entry): as above

Molecule: CC(=O)N[C@H]1C(O)O[C@H](CO)[C@@H](O[C@@H]2O[C@H](CO)[C@H](O)[C@H](O)[C@H]2O)[C@@H]1O (some centres unmarked) [LacNAc, N-Acetyllactosamine]
Kd in HEPES buffer (values not given) (Gal-1 (Galectin-1) [1]): mirrored the values obtained in phosphate buffer | −TΔS (Gal-1 (Galectin-1) [1]; [7]): 4.40 kcal/mol | −ΔG (Gal-1 (Galectin-1) [1]; [7]): 5.57 kcal/mol | −ΔH (Gal-1 (Galectin-1) [1]; [7]): 9.97 (± 0.151) kcal/mol | Ka (Gal-1 (Galectin-1) [1]; [9]): 12000 M⁻¹ | Kd (Gal-1 (Galectin-1) [1]; [9]): 0.083 mM | n-value (Gal-1 (Galectin-1) [1]): 2 | −TΔS (his-tagged Gal-1; [8]): 4.27 kcal/mol | −ΔG (his-tagged Gal-1; [8]): 5.53 kcal/mol | −ΔH (his-tagged Gal-1; [8]): 9.79 (± 0.206) kcal/mol | n (binding stoichiometry) (his-tagged Gal-1; [8]): 2.02 | agreement of titrations (his-tagged Gal-1): in agreement with values obtained for Gal-1 and previously reported value | Gal-3 affinity relative to Gal-1 (Gal-3 (Galectin-3) [2]): ~2 x

Molecule: CC(=O)N[C@@H](C=O)[C@@H](O[C@@H]1O[C@H](CO)[C@H](O)[C@H](O)[C@H]1O)[C@@H](O)[C@H](O)CO [TF, 2-Acetamido-2-deoxy-3-O-β-D-galactopyranosyl-D-galactose]
Gal-1 recognition of TF antigen by ITC (Bian et al.) (Gal-1 (Galectin-1) [3]): failed to observe Gal-1 recognition of the TF antigen in solution beyond millimolar affinity | Gal-1 binding to TF antigen, glycan microarray (Gal-1): did not bind significantly | Thermodynamic driving force of Gal-3 binding (Gal-3 (Galectin-3) [4]): enthalpy-driven | Kd (Gal-1 (Galectin-1) [1]): 3.8 mM | Gal-1 binding affinity in words (Gal-1 (Galectin-1) [1]; 25 °C, listed as TF disaccharide): binding by Gal-1 in mM range; also recorded: failed to recognize TF disaccharide and Thr-TF (TF antigen) beyond the millimolar affinity | −TΔS (Gal-1 (Galectin-1) [1]; [7]): 13.4 kcal/mol | −ΔG (Gal-1 (Galectin-1) [1]; [7]): 3.30 kcal/mol | −ΔH (Gal-1 (Galectin-1) [1]; [7]): 16.7 (± 0.221) kcal/mol | Ka (Gal-1 (Galectin-1) [1]; [9]): 260 M⁻¹ | Affinity of TF for His52-mutated Gal-1 (Gal-1, His52 mutant): high μM affinity | Affinity of the Gal-1 CRD for TF [5]: high mM range

Molecule: ASF: Asialofetuin from fetal calf serum Type 1, a glycoprotein with three triantennary LacNAc presentations
Kd in HEPES buffer (values not given) (Gal-1 (Galectin-1) [1]): mirrored the values obtained in phosphate buffer | Gal-1 binding affinity in words (Gal-1 (Galectin-1) [1]; 25 °C): remained in the uM range; also recorded: low micromolar affinity | −TΔS (Gal-1 (Galectin-1) [1]; [7]): 58.2 kcal/mol | −ΔG (Gal-1 (Galectin-1) [1]; [7]): 7.15 kcal/mol | Ka (Gal-1 (Galectin-1) [1]; [9]): 174000 M⁻¹ | Kd (Gal-1 (Galectin-1) [1]; [9]): 0.00576 mM | −TΔS (his-tagged Gal-1; [8]): 50.1 kcal/mol | −ΔG (his-tagged Gal-1; [8]): 7.37 kcal/mol | agreement of titrations (his-tagged Gal-1): in agreement with values obtained for Gal-1 and previously reported value | Ka (his-tagged Gal-1; [10]): 340100 M⁻¹ | Kd (his-tagged Gal-1; [10]): 2.94 µM | −TΔS (his-tagged Gal-1; [10]): 49.6 kcal/mol | −ΔG (his-tagged Gal-1; [10]): 7.55 kcal/mol

The next lines start with results.

−TΔS (Gal-1 (Galectin-1) [1]; [7]): 7.09 kcal/mol | −ΔH (Gal-1 (Galectin-1) [1]; [7]): 11.9 (± 0.906) kcal/mol | n-value (Gal-1 (Galectin-1) [1]): 2 | −TΔS (his-tagged Gal-1; [8]): 4.04 kcal/mol | −ΔH (his-tagged Gal-1; [8]): 8.67 (± 1.43) kcal/mol | n (binding stoichiometry) (his-tagged Gal-1; [8]): 2.05
Molecule: OC[C@H]1O[C@@H](O[C@H]2[C@H](O)[C@@H](O)C(O)O[C@@H]2CO)[C@H](O)[C@@H](O)[C@H]1O (mixture of isomers) [Lactose, lactose]
agreement of titrations (his-tagged Gal-1): in agreement with values obtained for Gal-1 and previously reported value

Gal-1 binding affinity in words (Gal-1 (Galectin-1) [1]; 25 °C, listed as Thr-TF antigen): binding by Gal-1 in mM range | −TΔS (Gal-1 (Galectin-1) [1]; [7]): 13.3 kcal/mol | −ΔG (Gal-1 (Galectin-1) [1]; [7]): 3.28 kcal/mol | −ΔH (Gal-1 (Galectin-1) [1]; [7]): 16.6 (± 0.269) kcal/mol | Ka (Gal-1 (Galectin-1) [1]; [9]): 250 M⁻¹ | Kd (Gal-1 (Galectin-1) [1]; [9]): 3.96 mM
Molecule: CC(=O)NC1C(OC(C)C(N)C(=O)O)OC(CO)C(O)C1OC1OC(CO)C(O)C(O)C1O (centres unmarked) [Thr-TF, Gal1–3βGalNAcα1-O-Thr]
Gal-1 binding affinity in words (Gal-1 (Galectin-1) [1]; 25 °C): failed to recognize TF disaccharide and Thr-TF (TF antigen) beyond the millimolar affinity

-dH (Galectin-1): 65.4 ± 1.42 kcal/mol | stoichiometry N (Galectin-1): 0.222 | -dH [6]: 57.1 kcal/mol and 57.5 kcal/mol | stoichiometry N [6]: 0.274 and 0.283 | fold affinity for ASF against Gal-1 (Galectin-3): ~12 fold
B1: Asialofetuin (ASF) from fetal calf serum Type 1 (natural protein, bovine (from fetal calf serum), UniProt P12763 19-359, looked up)
chain: IPLDPVAGYKEPACDDPDTEQAALAAVDYINKHLPRGYKHTLNQIDSVKVWPRRPTGEVYDIEIDTLETTCHVLDPTPLANCSVRQQTQHAVEGDCDIHVLKQDGQFSVLFTKCDSSPDSAEDVRKLCPDCPLLAPLNDSRVVHAVEVALATFNAESNGSYLQLVEISRAQFVPLPVSVSVEFAVAATDCIAKEVVDPTKCNLLAEKQYGFCKGSVIQKALGGEDVRVTCTLFQTQPVIPQPQPDGAEAEAPSAVPDAAGPTPSAAGPPVASVVVGPSVVAVPLPLHRAHYDLRHTFSGVASVESSSGEAFHVGKTPIVGQPSIPGGPVRLCPGRIRYFKI
modifications: desialylated glycoprotein with three triantennary LacNAc presentations (glycan valency of nine)
